Measurements: patent publication US20110092510A1, “DPP-IV INHIBITORS FOR USE IN THE TREATMENT OF NAFLD” (BOEHRINGER INGELHEIM INTERNATIONAL GMBH, priority 2008, published 2011)
“Also recorded” adds a separate entry of the source.

Experiments:
[1] = Excretion/elimination of BI 1356 at therapeutic oral dose levels; type: in vivo
[2] = Safety and tolerability in people with type 2 diabetes; type: in vivo

CC#CCn1c(N2CCC[C@@H](N)C2)nc2c1c(=O)n(Cc1nc(C)c3ccccc3n1)c(=O)n2C [BI 1356, 1-[(4-methyl-quinazolin-2-yl)methyl]-3-methyl-7-(2-butyn-1-yl)-8-(3-(R)-amino-piperidin-1-yl)-xanthine]
fraction excreted via the kidney [1]: < 7 % of the administered oral dose
main route of excretion [1]: mainly excreted via the liver; also recorded: primarily excreted unchanged via the bile
safety and tolerability [2]: placebo-like safety and tolerability
